Tests used:
Set-up in all cases: key: “+” indicates that the compound exibits inhibitory activity; “−” indicates that low or no inhibitory activity was observed
HeLa cells [1] = assay: Non-photographic proliferation analysis (Promega Cell titer Aqueous), HeLa; type: cell-based; conditions: 6 concentrations tested
Summary of the method: (§1)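 HeLa, A549 and HCT116 cells, 2,000 per well in RPMI with 5% FBS, were given compounds 24 h after plating as 6.3-fold duplicate dilutions from 10 mM stock, diluted 500-fold into the wells. After 48 h at 37° C, 5% CO2, Cell titer Aqueous reagent was added for 45 min and absorbance read at 490 nm.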

E3 MDM2 = E3 MDM2 (Homo sapiens, UniProt Q00987); assay: Plate-based autoubiquitination of the E3 MDM2 (MDM2-FLAG); type: biochemical; conditions: 8 concentrations tested
Protocol: E3 (His-APC11/APC2-“APC”) auto-ubiquitination was measured as described in U.S. patent application Ser. No. 09/826,312 (Publication No. US-2002-0042083-A1), which is incorporated herein in its entirety. Details of the protocol are described below. Activity in the presence of the compound was determined relative to a parallel control in which only DMSO was added. Values of the IC50 were typically determined using 6 or 8 different concentrations of the compound, although as few as 2 concentrations may be used to approximate the IC50 value.
Nickel-coated 96-well plates (Pierce 15242) were blocked for 1 hour with 100 μl of blocking buffer at room temperature. The plates were washed 4 times with 225 μl of 1×PBS and 80 μl of the reaction buffer were added that contained 100 ng/well of Flag-ubiquitin. To this, 10 μl of the test compound diluted in DMSO were added. After the test compound was added, 10 μl of E1 (human), E2 (Ubch5c), and APC in Protein Buffer was added to obtain a final concentration of 5 ng/well of E1, 20 ng/well of E2 and 100 ng/well of APC. The plate were shaken for 10 minutes and incubated at room temperature for 1 hour. After incubation, the plates were washed 4 times with 225 μl of 1×PBS and 100 μl/well of Antibody Mix were added to each well. The plates were incubate at room temperature for another hour after which they were washed 4 times with 225 μl of 1×PBS and 100 μl/well of Lumino substrate were added to each well. The luminescence was measured by using a BMG luminescence microplate reader.
(§2) To prepare the Blocking Buffer (1 liter; 1% Casein in 1×PBS), 10 grams of Casein (Hammersten Grade Casein from Gallard-Schlesinger Inc. #440203) were placed into 1 liter of 1×PBS, stirred on a hot plate and kept between 50-60° C. for an hour. The buffer was allowed to cool to room temperature and then filtered using a Buchner Funnel (Buchner filter funnel 83 mm 30310-109) and Whatman filter paper (Whatman Grade No. 1 Filter paper 28450-070). It was stored at 4° C. until used.
(§3) The reaction buffer consisted of 62.5 mM Tris pH 7.6 (Trizma Base—Sigma T-8524), 3 mM MgCl2 (Magnesium Chloride—Sigma M-2393), 1 mM DTT (Sigma D-9779), 2.5 mM ATP (Roche Boehringer Mann Corp. 635-316), 100 ng/well of Flag-ubiquitin, 0.1% BSA (Sigma A-7906), and 0.05% Tween-20 (Sigma P-7949).
(§4) The Protein Buffer consisted of 20 mM Tris pH 7.6, 10% glycerol (Sigma G-5516) and 1 mM DTT.
(§5) The antibody mix consisted of 0.25% BSA (Sigma A-7906) in 1×PBS, 1/50,000 anti-Flag (Sigma F-3165), 1/100,000 of anti-Mouse IgG-HRP (Jackson Immunoresearch #115-035-146).
The substrate mix consisted of SuperSignal Substrate from Pierce (catalog number 37070ZZ) and was prepared by mixing 100 ml of the peroxide solution, 100 ml of the enhancer solution and 100 ml of Milli-Q® water.
In similar manner, autoubiquitination of the E3 MDM2 was determined (MDM2-FLAG). Further instruction in such assays can be found in U.S. patent application Ser. No. 10/108,767 (Publication No. US-2003-0104474 A1), which is incorporated herein in its entirety.

HCT116 cells = assay: Cell proliferation assay, photographic image analysis of proliferation, apoptosis and death (PAD assay), HCT116; type: cell-based; conditions: 6 concentrations tested
Summary of the method: (§6)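 Cells grown in RPMI with 5% FBS (2,000/well) and dosed 24 h after plating with 6.3-fold dilutions in duplicate (master plate 500× final, top 10 mM stock). After 48 h at 37 °C, cells formamide-fixed and DAPI-stained. Image analysis counted live, apoptotic and dead cells.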

HeLa cells [2] = assay: Cell proliferation assay, photographic image analysis of proliferation, apoptosis and death (PAD assay), HeLa; type: cell-based; conditions: 6 concentrations tested
Summary of the method: as §6

MDM2 / p53 substrate = MDM2 / p53 substrate (Homo sapiens, UniProt Q00987); assay: Plate-based MDM2 substrate ligation assay (MDM2-P53-FLAG); type: biochemical; conditions: 8 concentrations tested
Source text: This assay was preformed essentially as described in WO 03/076899 (page 77, line 5 to page 80, line 13), hereby incorporated by reference in its entirety.

[3] = biological target: T1, E3 (His-APC11/APC2-"APC") (Homo sapiens, UniProt Q9NYG5+Q9UJX6); assay: Plate-based E3 ligase assay (APC FLAG), auto-ubiquitination; type: biochemical; conditions: 8 concentrations tested
Summary of the method: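 His-APC11/APC2 auto-ubiquitination was run in casein-blocked nickel plates for 1 h at room temperature, with E1 at 5 ng/well, UbcH5c at 20 ng/well and APC at 100 ng/well. Buffer was 62.5 mM Tris pH 7.6, 3 mM MgCl2, 1 mM DTT, 2.5 mM ATP and Flag-ubiquitin at 100 ng/well. Detection used anti-Flag/HRP chemiluminescence, and IC50 was typically from 6 or 8 concentrations versus a DMSO control.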

A549 cells [4] = assay: Cell proliferation assay, photographic image analysis of proliferation, apoptosis and death (PAD assay), A549; type: cell-based; conditions: 6 concentrations tested
Summary of the method: as §6

A549 cells [5] = assay: Non-photographic proliferation analysis (Promega Cell titer Aqueous), A549; type: cell-based; conditions: 6 concentrations tested
Summary of the method: as §1

[6] = biological target: T1, E3 (His-APC11/APC2-"APC"); assay: Gel-based E3 ligase assay, auto-ubiquitination; type: biochemical
Protocol: E3 (His-APC11/APC2-“APC”) auto-ubiquitination was measured as described in U.S. patent application Ser. No. 09/826,312 (Publication No. U.S. Pat. No. 2,002,0042083-A1), which is incorporated herein in its entirety. Details of the protocol are described below. Activity in the presence of compound was determined relative to a parallel control in which only DMSO is added. The IC50 values were typically determined using 6 or 8 different concentrations of compound, although as few as 2 concentrations may be used to approximate the IC50 values.
Corning 96-well plates (Corning 3650) were blocked with 100 μl of Blocking Buffer for 1 hour at room temperature. The plates were washed 4 times with 225 μl of 1×PBS and 80 μl of the reaction buffer were added that contained 100 ng/well of Flag-ubiquitin. To this, 10 μl of the test compound diluted in DMSO were added. After the test compound was added, 10 μl of E1 (human), E2 (Ubch5c) and APC in Protein Buffer were added to obtain a final concentration of 5 ng/well of E1, 20 ng/well of E2 and 100 ng/well APC. The plates were shaken for 10 minutes and incubated at room temperature for 1 hour. After incubation, the reaction was stopped by adding 25 μl of loading buffer (non-reducing) per well and the plates were heated at 95° C. for 5 minutes. An aliquot of each well was run on a 10% NugePage Gel and analyzed by Western Blot using the antibody mix and Lumino substrate described below. The luminescence was measured by using a BMG luminescence microplate reader.
as §2, §3, §4, §5
The substrate mix consisted of SuperSignal Substrate from Pierce (catalog number 37070ZZ) and was prepared by mixing 100 ml of the peroxide solution, 100 ml of the enhancer solution and 100 ml of Millie water.

T1 sequence (Q9NYG5 whole entry): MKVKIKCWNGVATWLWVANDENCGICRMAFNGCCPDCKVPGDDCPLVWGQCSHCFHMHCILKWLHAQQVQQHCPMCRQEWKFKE
T1 sequence (Q9UJX6 whole entry): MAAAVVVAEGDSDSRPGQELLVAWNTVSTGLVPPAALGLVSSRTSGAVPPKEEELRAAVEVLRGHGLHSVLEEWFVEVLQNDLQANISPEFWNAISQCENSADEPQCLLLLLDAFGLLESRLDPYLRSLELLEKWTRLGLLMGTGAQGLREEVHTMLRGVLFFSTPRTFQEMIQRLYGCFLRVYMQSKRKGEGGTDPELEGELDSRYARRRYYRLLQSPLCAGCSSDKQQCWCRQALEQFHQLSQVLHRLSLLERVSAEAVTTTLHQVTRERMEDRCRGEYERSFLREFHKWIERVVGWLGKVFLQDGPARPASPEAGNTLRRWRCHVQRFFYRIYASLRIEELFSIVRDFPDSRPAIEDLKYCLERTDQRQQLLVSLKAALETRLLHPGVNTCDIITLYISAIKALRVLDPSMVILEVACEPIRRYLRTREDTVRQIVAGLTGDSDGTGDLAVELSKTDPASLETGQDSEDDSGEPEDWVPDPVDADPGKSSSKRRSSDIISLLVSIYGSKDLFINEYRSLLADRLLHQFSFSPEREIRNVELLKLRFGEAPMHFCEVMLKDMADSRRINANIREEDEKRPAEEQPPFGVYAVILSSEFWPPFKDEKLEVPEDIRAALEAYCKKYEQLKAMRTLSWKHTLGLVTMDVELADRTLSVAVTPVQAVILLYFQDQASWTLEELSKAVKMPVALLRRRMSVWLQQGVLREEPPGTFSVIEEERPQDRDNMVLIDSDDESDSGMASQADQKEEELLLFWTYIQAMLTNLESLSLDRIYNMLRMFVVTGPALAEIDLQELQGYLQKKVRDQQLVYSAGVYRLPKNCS
E3 MDM2, sequence (Q00987 whole entry): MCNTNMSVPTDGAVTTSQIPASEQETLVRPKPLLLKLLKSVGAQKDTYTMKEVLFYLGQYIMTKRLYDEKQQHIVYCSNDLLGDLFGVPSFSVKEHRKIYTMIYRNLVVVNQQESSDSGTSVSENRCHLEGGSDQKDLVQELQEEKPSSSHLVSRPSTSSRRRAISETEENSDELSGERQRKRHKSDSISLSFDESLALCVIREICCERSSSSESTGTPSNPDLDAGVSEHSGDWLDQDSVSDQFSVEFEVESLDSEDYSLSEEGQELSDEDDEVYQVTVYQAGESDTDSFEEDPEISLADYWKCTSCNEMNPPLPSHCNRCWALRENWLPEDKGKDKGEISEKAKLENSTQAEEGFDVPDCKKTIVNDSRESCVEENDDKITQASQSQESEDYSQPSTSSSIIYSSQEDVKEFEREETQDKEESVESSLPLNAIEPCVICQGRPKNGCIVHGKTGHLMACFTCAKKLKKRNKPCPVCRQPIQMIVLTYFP
MDM2 / p53 substrate, sequence (Q00987 whole entry): as above

O=[N+]([O-])c1ccc(Oc2c(Cl)cc(S(=O)(=O)Nc3cc(Cl)ccc3Cl)cc2Cl)c(Cl)c1 [Compound 203, 3,5-dichloro-4-(2-chloro-4-nitrophenoxy)-N-(2,5-dichlorophenyl)benzene sulfonamide]
Cell Titer-Aqueous, HELA 6 pt (HeLa cells [1]): +
MDM2-Auto Flag 8 pt (E3 MDM2): +
PAD Assay, HCT116 6 pt (HCT116 cells): +
PAD Assay, HELA 6 pt (HeLa cells [2]): +
MDM2-P53 Flag 8 pt (MDM2 / p53 substrate): +
APC Flag 8 pt [3]: +
PAD Assay, A549 6 pt (A549 cells [4]): +
Cell Titer-Aqueous, A549 6 pt (A549 cells [5]): +

O=[N+]([O-])c1ccc(Oc2c(Cl)cc(S(=O)(=O)Nc3ccc(Cl)cc3[N+](=O)[O-])cc2Cl)c(Cl)c1 [Compound 215, 3,5-dichloro-4-(2-chloro-4-nitrophenoxy)-N-(4-chloro-2-nitrophenyl)benzene sulfonamide]
Cell Titer-Aqueous, HELA 6 pt (HeLa cells [1]): +
MDM2-Auto Flag 8 pt (E3 MDM2): +
PAD Assay, HCT116 6 pt (HCT116 cells): +
PAD Assay, HELA 6 pt (HeLa cells [2]): +
MDM2-P53 Flag 8 pt (MDM2 / p53 substrate): +
APC Flag 8 pt [3]: +
PAD Assay, A549 6 pt (A549 cells [4]): +
Cell Titer-Aqueous, A549 6 pt (A549 cells [5]): +

O=[N+]([O-])c1ccc(Oc2c(Cl)cc(S(=O)(=O)Nc3cc(Br)cc(Br)n3)cc2Cl)c(Cl)c1 [Compound 218]
Cell Titer-Aqueous, HELA 6 pt (HeLa cells [1]): +
MDM2-Auto Flag 8 pt (E3 MDM2): +
PAD Assay, HCT116 6 pt (HCT116 cells): −
PAD Assay, HELA 6 pt (HeLa cells [2]): +
MDM2-P53 Flag 8 pt (MDM2 / p53 substrate): +
APC Flag 8 pt [3]: +
PAD Assay, A549 6 pt (A549 cells [4]): −
Cell Titer-Aqueous, A549 6 pt (A549 cells [5]): +

O=[N+]([O-])c1ccc(Oc2c(Cl)cc(S(=O)(=O)Nc3cc([N+](=O)[O-])ccc3F)cc2Cl)c(Cl)c1 [Compound 220, 3,5-dichloro-4-(2-chloro-4-nitrophenoxy)-N-(2-fluoro-5-nitrophenyl)benzene sulfonamide]
Cell Titer-Aqueous, HELA 6 pt (HeLa cells [1]): +
MDM2-Auto Flag 8 pt (E3 MDM2): +
PAD Assay, HCT116 6 pt (HCT116 cells): +
PAD Assay, HELA 6 pt (HeLa cells [2]): +
MDM2-P53 Flag 8 pt (MDM2 / p53 substrate): −
APC Flag 8 pt [3]: +
PAD Assay, A549 6 pt (A549 cells [4]): +
Cell Titer-Aqueous, A549 6 pt (A549 cells [5]): +

O=[N+]([O-])c1ccc(Oc2c(Cl)cc(S(=O)(=O)Nc3ccc4cc[nH]c4c3)cc2Cl)c(Cl)c1 [Example 172, 3,5-dichloro-4-(2-chloro-4-nitrophenoxy)-N-1H-indol-6-ylbenzenesulfonamide]
Cell Titer-Aqueous, HELA 6 pt (HeLa cells [1]): +
PAD Assay, HELA 6 pt (HeLa cells [2]): +
PAD Assay, A549 6 pt (A549 cells [4]): +
APC Flag (gel) [6]: + (gel)
Cell Titer-Aqueous, A549 6 pt (A549 cells [5]): +

CSc1ccccc1NS(=O)(=O)c1cc(Cl)c(Oc2ccc([N+](=O)[O-])cc2Cl)c(Cl)c1 [Example 191, 3,5-dichloro-4-(2-chloro-4-nitrophenoxy)-N-[2-(methylthio)phenyl]benzenesulfonamide]
PAD Assay, HCT116 6 pt (HCT116 cells): +
PAD Assay, HELA 6 pt (HeLa cells [2]): +
PAD Assay, A549 6 pt (A549 cells [4]): +
APC Flag (gel) [6]: − (gel)

NC(=O)c1ccccc1NS(=O)(=O)c1cc(Cl)c(Oc2ccc([N+](=O)[O-])cc2Cl)c(Cl)c1 [Example 193, 2-({[3,5-dichloro-4-(2-chloro-4-nitrophenoxy)phenyl]sulfonyl}amino)benzamide]
APC Flag (gel) [6]: − (gel)

O=[N+]([O-])c1ccc(Oc2c(Cl)cc(S(=O)(=O)Nc3ccncc3)cc2Cl)c(Cl)c1 [Example 221, 3,5-dichloro-4-(2-chloro-4-nitrophenoxy)-N-pyridin-4-ylbenzenesulfonamide]
Cell Titer-Aqueous, HELA 6 pt (HeLa cells [1]): −
PAD Assay, HELA 6 pt (HeLa cells [2]): −
PAD Assay, A549 6 pt (A549 cells [4]): −
APC Flag (gel) [6]: − (gel)
Cell Titer-Aqueous, A549 6 pt (A549 cells [5]): −

O=[N+]([O-])c1ccc(Oc2c(Cl)cc(S(=O)(=O)NCCc3ccc(O)cc3)cc2Cl)c(Cl)c1 [Example 223, 3,5-dichloro-4-(2-chloro-4-nitrophenoxy)-N-[2-(4-hydroxyphenyl)ethyl]benzene-sulfonamide]
Cell Titer-Aqueous, HELA 6 pt (HeLa cells [1]): −
APC Flag (gel) [6]: − (gel)
Cell Titer-Aqueous, A549 6 pt (A549 cells [5]): −
